Columns and labels:
ASK1 [1] = target: T1, ASK1 (Homo sapiens, UniProt Q99683); experiment: […]PanQinase radiometric kinase assay (Reaction Biology); type: biochemical; settings: read-out: Residual activities [% of control] / 1(R) 10 μM
T1 construct: gene MAP3K5
T1 sequence (Q99683 1-1374): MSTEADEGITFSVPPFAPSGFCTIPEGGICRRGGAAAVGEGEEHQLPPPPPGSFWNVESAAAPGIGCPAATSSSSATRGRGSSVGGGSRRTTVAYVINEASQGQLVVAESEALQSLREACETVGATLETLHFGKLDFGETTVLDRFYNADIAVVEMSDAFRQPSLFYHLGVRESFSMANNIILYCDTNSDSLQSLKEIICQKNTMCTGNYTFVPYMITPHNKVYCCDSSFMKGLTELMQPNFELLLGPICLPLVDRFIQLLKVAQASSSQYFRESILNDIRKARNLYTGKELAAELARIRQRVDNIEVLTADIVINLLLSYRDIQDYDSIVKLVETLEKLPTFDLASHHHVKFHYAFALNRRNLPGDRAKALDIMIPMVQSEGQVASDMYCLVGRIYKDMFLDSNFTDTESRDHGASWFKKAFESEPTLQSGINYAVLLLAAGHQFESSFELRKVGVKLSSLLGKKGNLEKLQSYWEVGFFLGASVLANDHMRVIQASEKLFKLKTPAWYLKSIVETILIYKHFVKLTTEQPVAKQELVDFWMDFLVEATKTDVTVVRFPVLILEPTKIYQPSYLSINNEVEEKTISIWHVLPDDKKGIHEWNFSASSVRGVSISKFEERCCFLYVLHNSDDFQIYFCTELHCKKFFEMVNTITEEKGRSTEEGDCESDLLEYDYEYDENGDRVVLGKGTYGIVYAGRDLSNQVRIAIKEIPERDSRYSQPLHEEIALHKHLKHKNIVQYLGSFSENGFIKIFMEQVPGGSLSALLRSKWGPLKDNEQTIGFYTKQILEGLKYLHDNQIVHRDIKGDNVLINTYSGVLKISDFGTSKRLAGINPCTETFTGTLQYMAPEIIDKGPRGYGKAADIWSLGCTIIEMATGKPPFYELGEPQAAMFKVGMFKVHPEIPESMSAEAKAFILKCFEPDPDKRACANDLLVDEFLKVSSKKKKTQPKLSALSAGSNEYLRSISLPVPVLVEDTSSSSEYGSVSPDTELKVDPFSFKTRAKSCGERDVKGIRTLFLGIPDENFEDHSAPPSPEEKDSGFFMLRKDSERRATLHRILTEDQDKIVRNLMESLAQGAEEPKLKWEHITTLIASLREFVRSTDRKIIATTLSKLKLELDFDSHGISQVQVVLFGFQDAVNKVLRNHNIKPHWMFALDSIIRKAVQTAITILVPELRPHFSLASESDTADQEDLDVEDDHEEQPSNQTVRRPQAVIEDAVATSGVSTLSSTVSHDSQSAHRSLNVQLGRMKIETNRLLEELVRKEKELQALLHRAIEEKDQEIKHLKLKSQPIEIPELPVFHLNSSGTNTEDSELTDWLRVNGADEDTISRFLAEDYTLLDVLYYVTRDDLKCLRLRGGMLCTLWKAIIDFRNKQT

LIMK1 = LIMK1 (Homo sapiens, UniProt P53667); experiment: biochemical; parameters: 33PanQinase radiometric kinase activity assay, residual activity in % of control, contract lab Reaction Biology; settings: mean of intraexperimental duplicates, n = 1; read-out: Residual activities [% of control] / 1(R) 10 µM
LIMK1, sequence (P53667 whole entry): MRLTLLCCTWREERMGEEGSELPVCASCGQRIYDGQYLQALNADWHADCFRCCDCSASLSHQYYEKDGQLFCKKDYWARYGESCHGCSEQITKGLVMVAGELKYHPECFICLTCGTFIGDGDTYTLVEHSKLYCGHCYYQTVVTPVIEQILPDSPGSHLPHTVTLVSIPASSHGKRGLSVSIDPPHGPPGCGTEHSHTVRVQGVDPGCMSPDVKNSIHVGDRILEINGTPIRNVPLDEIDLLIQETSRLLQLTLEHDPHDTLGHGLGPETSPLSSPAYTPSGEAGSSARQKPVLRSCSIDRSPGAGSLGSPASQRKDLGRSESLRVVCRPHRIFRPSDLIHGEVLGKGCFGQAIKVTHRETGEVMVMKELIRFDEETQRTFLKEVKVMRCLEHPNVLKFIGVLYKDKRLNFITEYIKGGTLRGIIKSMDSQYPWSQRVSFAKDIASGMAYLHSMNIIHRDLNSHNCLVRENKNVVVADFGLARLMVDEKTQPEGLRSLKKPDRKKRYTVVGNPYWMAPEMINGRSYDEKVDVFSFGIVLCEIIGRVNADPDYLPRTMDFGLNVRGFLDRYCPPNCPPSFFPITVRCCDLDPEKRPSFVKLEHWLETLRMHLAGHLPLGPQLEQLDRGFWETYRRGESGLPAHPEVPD

AuroraB = target: T2, AuroraB (Homo sapiens, UniProt Q96GD4); experiment: biochemical; parameters: 33PanQinase radiometric kinase activity assay, residual activity in % of control, contract lab Reaction Biology; settings: mean of intraexperimental duplicates, n = 1; read-out: Residual activities [% of control] / 1(R) 10 µM
T2 construct: gene AURKB
T2 sequence (Q96GD4 whole entry): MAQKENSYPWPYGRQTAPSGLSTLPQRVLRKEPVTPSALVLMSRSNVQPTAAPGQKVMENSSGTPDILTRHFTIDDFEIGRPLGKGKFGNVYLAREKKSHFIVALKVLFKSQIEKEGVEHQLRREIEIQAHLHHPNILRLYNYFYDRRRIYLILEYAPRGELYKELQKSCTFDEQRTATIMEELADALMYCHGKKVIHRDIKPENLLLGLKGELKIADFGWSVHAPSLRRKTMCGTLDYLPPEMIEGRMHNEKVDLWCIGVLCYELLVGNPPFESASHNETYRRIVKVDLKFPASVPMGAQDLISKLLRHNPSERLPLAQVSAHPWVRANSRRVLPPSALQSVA

AuroraA = target: T3, AuroraA (Homo sapiens, UniProt O14965); experiment: biochemical; parameters: 33PanQinase radiometric kinase activity assay, residual activity in % of control, contract lab Reaction Biology; settings: mean of intraexperimental duplicates, n = 1; read-out: Residual activities [% of control] / 1(S) 10 µM
T3 construct: gene AURKA
T3 sequence (O14965 1-403): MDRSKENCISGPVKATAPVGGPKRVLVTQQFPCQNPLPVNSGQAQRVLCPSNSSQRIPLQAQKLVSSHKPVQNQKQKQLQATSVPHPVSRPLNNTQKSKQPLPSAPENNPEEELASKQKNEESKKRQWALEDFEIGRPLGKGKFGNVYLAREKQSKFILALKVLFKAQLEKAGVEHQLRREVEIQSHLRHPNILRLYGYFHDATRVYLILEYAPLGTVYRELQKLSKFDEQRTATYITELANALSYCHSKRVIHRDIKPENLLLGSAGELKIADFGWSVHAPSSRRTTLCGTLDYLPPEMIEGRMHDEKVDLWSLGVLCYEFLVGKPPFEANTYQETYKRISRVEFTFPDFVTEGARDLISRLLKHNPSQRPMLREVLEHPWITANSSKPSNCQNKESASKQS

ASK1 [2] = target: T1, ASK1; experiment: biochemical; parameters: 33PanQinase radiometric kinase activity assay, residual activity in % of control, contract lab Reaction Biology; settings: mean of intraexperimental duplicates, n = 1; read-out: Residual activities [% of control] / 1(S) 10 µM

| Compound | remaining activity at 10 µM (ASK1 [1]) [%] | remaining activity at 10 µM (LIMK1) [%] | remaining activity at 10 µM (AuroraB) [%] | remaining activity at 10 µM (AuroraA) [%] | remaining activity at 10 µM (ASK1 [2]) [%] |
| --- | --- | --- | --- | --- | --- |
| Nc1ccc2ccccc2c1-c1c(N)ccc2ccccc12 [1(R), (R)‐[1,1′‐binaphthalene]‐2,2′‐diamine] | 90 | 103 | 101 |  |  |
| Nc1ccc2ccccc2c1-c1c(N)ccc2ccccc12 [1(S), S‐BINAM] |  |  |  | 98 | 117 |

From article PMC12503911, “Cytotoxicity of Atropisomeric [1,1′‐Binaphthalene]‐2,2′‐Diamines (BINAM) and Analogs in Human Cancer Cells: Enantioselectivity, Structure–Activity Relationships, and Mechanism” (Chemmedchem, 2025)
